Data taken from a melting point compilation (Tetko et al.; mined from patent text by program, amines drawn as free bases though some values may be those of a salt).

melting point [°C] | Compound
123 to 125 | OC1(c2ccc3c(c2)OCO3)CCN(CCc2ccccc2)CC1
180 | Cc1oncc1-c1cccc(OC2SCC(O)C(O)C2O)c1 (configuration not stated)
127 to 145 | Cc1ccccc1C(=O)CN1C(=O)C(NC(=O)c2cc3ccccc3[nH]2)N=C(C2CCCCC2)c2cccc(C)c21 (racemic)
153 | CCOC(=O)c1ncc(C)nc1O
126 | O=C1OCc2cc(CO)ccc21
175 to 176 | COc1cc2c(cc1O)CCN(C(=O)c1cc(OC)c(OC)c(OC)c1)C2=O
212 | COc1cnc(N2CCN(c3ccc([N+](=O)[O-])cc3)CC2)nc1
109 to 112 | COC1=C(OC)C(=O)C2=C(CCC(CCOc3ccc(-c4ccccc4)cc3)CC2)C1=O
162 to 165 | CNC(=NC#N)NCCCCc1nccc(NC(N)=NCCOC)n1
254 | Brc1cn2cc(-c3ccccc3)nc2c(Br)n1
119 to 125 | Cc1cc(C)c(C(=NO)C(F)(F)F)c(C)c1
117 to 118 | CC(=CC#N)CCN1C(=O)c2ccccc2S1(=O)=O
179 to 181 | O=C1c2ccccc2S(=O)(=O)N1CCCCN1CCN(c2cc(O)cc3c2OCCO3)CC1
86 to 87 | O=C(CCC1CCC(=O)O1)NCCc1ccccc1 (configuration not stated)
295 | CC1(C)Cc2c(c(N3CCCC3)nc3sc4c(NCc5ccc(S(N)(=O)=O)cc5)ncnc4c23)CO1
138 | O=c1c2ccccc2c(-c2ccccc2)cn1CCCCl
209 to 210 | CCCOc1ccc(S(C)(=O)=O)cc1C(=O)Nc1c(CC)n[nH]c1C(N)=O
114 | CC(=Cc1ccccc1)c1cc2c(cc1Cl)C(C)(C)CCC2(C)C
251 | Cc1ccc(C(=O)Oc2ccc3c(OC(=O)c4ccc(C)c(O)c4)c4ccccc4cc3c2OC(=O)c2ccc(C)c(O)c2)cc1O
192 to 194 | Cc1ccccc1Nc1nc(Cl)nc2ccccc12
75 to 85 | CCOC(=O)c1ccc(S(=O)(=O)Oc2c(-c3ccccc3)cc(C(=O)c3ccccc3)cc2-c2ccccc2)cc1O
265 to 266 | O=C(O)COc1ccc(CN2C(=O)C3(COc4cc5c(cc43)CCO5)c3ccccc32)cc1 (configuration not stated)
163 to 164 | CC(=O)OC1CSC(Oc2cncc(-c3ccc(C(F)(F)F)cc3)c2)C(OC(C)=O)C1OC(C)=O (configuration not stated)

melting point [°C] | Compound
130 to 131 | O=C(O)c1cccc2c1CC(N(CCCc1c[nH]c3c(F)cc(F)cc13)C1CCC1)CO2 (configuration not stated)
195 to 200 | COc1ccc(N2C(=O)N(c3cccc(C#N)c3)c3nc(Nc4cccc(CCO)c4)ncc3C2C)cc1 (configuration not stated)
109 to 113 | CC(C)(C)c1cc(C=CC#N)cc(C(C)(C)C)c1O
105 to 110 | COc1cccc(CCNC(=O)c2ccc3c(c2)C=CC(C)(C)O3)c1
245 to 248 | CC(=O)Nc1ccc(-c2ccc3nc(-c4cccnc4N)n(-c4ccc(CN)cc4)c3n2)cc1
264 to 266 | CC(C)(C)NC(=O)c1ccccc1C(c1ccc(O)cc1)c1ccc(O)cc1
103 to 104 | COc1cc(C)ccc1C(=O)O
223 to 225 | O=C1c2ccccc2C(=O)N1CCCCC1N=NC(=S)N1 (configuration not stated)
236 to 238 | O=C(Nc1ccc(-c2ncc(-c3ccc(NC(=O)C4CCCCCC4)cc3)[nH]2)cc1)c1ccc([N+](=O)[O-])cc1
234 to 236 | C=C1CC2C(CCC3(C)C2CCC3(OC(C)=O)C(C)=O)C2(C)CCC(=O)C=C12 (configuration not stated)
96 to 98 | CCCCCCCCCN(C[C@H]1CC[C@H](CN(CCCCCCCCC)C(=O)Nc2ccc(N(C)C)cc2)CC1)C(=O)Nc1ccc(N(C)C)cc1
215 to 216 | O=C(N[C@@H](Cc1ccccc1)[C@@H](O)[C@H](O)[C@H](Cc1ccccc1)NC(=O)OCc1ccccc1)OCc1ccccc1
168 to 170 | O=C(/C=C/c1ccccc1)NC1CCN(CCC2CCOc3ccccc32)CC1 (configuration not stated)
265 | Cc1nc(N)nc(N)c1-c1ccc([N+](=O)[O-])c(Cl)c1Cl
230 to 231 | COC(=O)c1ncc(OS(=O)(=O)c2ccc(C)cc2)c2c1[nH]c1ccccc12
143 to 145 | C=Cc1cc(C=Cc2cc(C(C)(C)C)cc(C(C)(C)C)c2)cc(C=Cc2cc(C(C)(C)C)cc(C(C)(C)C)c2)c1
228 to 230 | COC(=O)c1nc2ccc(Cl)cc2c(O)c1C(=O)OC
178 to 180 | CCN(CC)CCNC(=O)c1cnc(-c2ccccc2)nc1S
133 to 134 | COC(=O)c1cn2c(n1)COc1ccccc1-2
137 to 138 | O=[N+]([O-])c1ccccc1Sc1ncc[nH]1
171 to 173 | Cc1ccc(-c2c(CNC(=O)OC(C)(C)C)n(CC(C)C)c(=O)c3ccc(/C=C/C(=O)O)cc23)cc1
137 to 138 | CCN(CC)CCSCC(=O)c1ccc2[nH]c3ncc(Cl)cc3c2c1
92 to 94 | O=C(O)C(F)c1cccc(OCc2ccccc2Cl)c1OCc1ccccc1Cl (configuration not stated)

melting point [°C] | Compound
164 to 166 | Cc1ccc(NC(=S)N2CCC(O)C2)c(C)c1 (configuration not stated)
199 to 200 | CSc1c(C(Cc2ccccc2)C(=O)O)cc(C)c2c3ccccc3n(Cc3ccccc3)c12 (configuration not stated)
25 to 30 | CCOC(=O)C(=CNc1ccc2c(c1)CCC2)C(=O)OCC
222 to 234 | COc1ccc(N2C(=O)N(c3ccccc3)c3nc(Nc4ccccc4)ncc3C2C)cc1 (configuration not stated)
83 to 84 | CC(C)n1cncc1CO
120 to 128 | COc1cc2c(cc1Nc1ncc(Cl)c(NC3(C(=O)NCC#N)CC3)n1)CCN(CC(=O)N(C)C)CC2
160 to 162 | CNc1ccc(Cl)c(C(=O)Nc2cccc3c4c(oc23)CCCC4)c1Cl
141 to 147 | CC(=O)N(CCCC(=NNC(N)=S)c1ccccc1)C(C)C
173 to 177 | COc1ccc(CC#N)cc1S(N)(=O)=O
133 to 137 | COc1ccccc1Oc1c(Cl)nc(-c2ncccn2)nc1OCCO
174 to 175 | CN(C)c1ccc([N+](=O)[O-])c(C#N)c1
133 | COC(=O)c1scc(-c2ccccc2)c1-c1ccc(S(=O)O)c(F)c1
91 to 92 | O=C(Oc1ccc(F)cc1Cl)Oc1ccc(F)cc1Cl
223 to 228 | CCN(CC)C/C=C/c1ccc2c(Nc3ccc(Sc4nccn4C)c(Cl)c3)c(C#N)cnc2c1
129 to 130 | COc1ccc(Br)cc1CN1CCC(=O)C(C(c2ccc(F)cc2)c2ccc(F)cc2)C1 (configuration not stated)
58 to 60 | NCc1ccc(N2CCC2)cc1
125 to 126 | CC1(c2ccc(O)cc2)CC1(Cl)Cl (configuration not stated)
147 to 149 | CC(=O)SCC(C(=O)NC(Cc1occ2ccccc12)C(=O)O)C(F)(F)F (configuration not stated)
115 to 118 | Nc1sc2c(c1C(=O)c1cccs1)CCCC2
300 | Nc1ncc(-c2noc(-c3cnn4c(C(F)(F)F)cc(-c5ccc(Cl)c(Cl)c5)nc34)n2)cn1
178 to 190 | CC(Nc1nc2ccc(Cl)cc2cc1C(=O)O)C(=O)O (configuration not stated)
166 to 167 | Cc1nc(NCC2CC2)c2nnn(-c3ccc(C(C)C)cc3Br)c2n1
275 to 280 | COc1ccc(Cl)cc1-n1c(-c2ccc(C(F)(F)F)cc2)n[nH]c1=S

melting point [°C] | Compound
172 | COCCOC(=O)C1=C(C)Nc2nc(N3CCOCC3)nc(N3CCOCC3)c2C1c1cccc([N+](=O)[O-])c1 (configuration not stated)
75 to 77 | CCN(C=O)Cc1ccc(NCCN(CC)CC)c2c(=O)c3ccccc3sc12
< 50 | CC(=O)N(C)C1CCNCC1
115 to 120 | COc1ccccc1NC(=O)Nc1nc(Nc2ccc3ccccc3c2)nc(N(CCC(=O)O)Cc2ccc(Cl)c(Cl)c2)n1
202 to 203 | Cc1cc2c(cc1Cl)N(C(=O)Nc1ccc(C)c(-c3cccnc3)c1)CC2
102 | CCN(CC)c1nc2ccnn2c2ncccc12
176 to 178 | CCc1cc(Br)cc(NC(=O)C=NO)c1
128 to 129 | CCOC(CN1CCOCC1)CN1C(=O)c2ccccc2CS1(=O)=O (configuration not stated)
179 | OC1CSC(Oc2cnc(-c3cccnc3)c(F)c2)C(O)C1O (configuration not stated)
264 to 266 | N#Cc1cc(-c2ccc3c(c2)C2(CCCC2)C(=O)N3)ccc1F
164 to 166 | Cc1c(C)c(N2Cc3ccccc3C2)c(C)c2c1OC(C)(C)C2c1ccccc1 (configuration not stated)
85 | COC(=O)c1cccc(S(=O)(=O)Cc2c(O[C@H](Cn3ccnc3)c3ccccc3)ccc3c2CCCC3=O)c1
122 to 124 | CC(C)(C)c1ccc(OCC2=NC3(O)c4ccc(Cl)cc4CC3S2)cc1 (configuration not stated)
160 to 164 | O=C1C(c2cccc(C(F)(F)F)c2)=C(NC2CC2)OC1c1ccccc1 (configuration not stated)
61 to 62 | COc1ccc(SCCCCN2C(=O)c3ccccc3C2=O)cc1
228 to 230 | Fc1cc(CC2(Cc3ccncc3)c3cccnc3-c3ncccc32)ccn1
224 to 225 | O=C1c2ccccc2C(=O)N1CC(=O)N1c2ccccc2N(Cc2ccc([N+](=O)[O-])cc2)C(=O)[C@H]2CCC[C@H]21 (relative stereo)
159 to 160 | CN1CCN(c2cccc3c2C[C@H](NC(=O)c2cccc(OS(C)(=O)=O)c2)CC3)CC1
165 to 166 | CC(N)c1ccc(NS(C)(=O)=O)c(Sc2ccc(F)cc2F)c1 (configuration not stated)
139 to 142 | CNC(=O)N(C)c1nnc(SCc2ccccc2)s1

Compound | melting point [°C]
COc1cc(C2C3=C(COC3=O)Nc3ccc4cc(C)[nH]c4c32)cc(OC)c1OC (configuration not stated) | 280 to 281
C1=C(c2c[nH]c3ccccc23)CCN(CC2COc3ccc4c(c3O2)OCCC4)C1 (configuration not stated) | 140
CCn1ncc2c3c(cnc21)C(N)(OC)N=C1N=CNN13 (configuration not stated) | 215 to 216
COc1c(N=[N+]=[N-])ccnc1C#N | 102
Cc1nc(C=Cc2nc3ccc(F)cc3c(=O)n2-c2ccccc2C)cs1 | 211 to 212
O=c1oc(-c2ccccc2)cc(O)c1C(SCc1ccccc1)c1ccccc1 (configuration not stated) | 189 to 191
CN1CC=C(c2c[nH]c3ccc(CCNS(C)(=O)=O)cc23)CC1 | 170 to 172
N#Cc1ccc(N2C[C@@H]3[C@H](O)CCN3C2=O)c2ccccc12 | 226 to 228
